Results on three compounds are retold here after patent US12644099B2, “Methods for making T cell compositions” (2seventy bio, Inc., priority 2014, dated 2026).

In one assay the test system is anti-BCMA CAR T cells. Nature of the assay: CD62L expression on anti-BCMA CAR T cells by flow cytometry at the end of culture with inhibitor. In kind it is cell-based. Conditions: ten days of culture with IL-2 and optimized dose of inhibitor; three normal donors. The method, then:
CAR T cells were cultured with either MK-2206 or triciribine phosphate—TCN (AKT inhibitors) or ZSTK474 (PI3K inhibitor). CAR T cells specific for B cell maturation antigen (BCMA) were used in these set of experiments. CAR T cell cultures were performed using a system directly scalable to large clinical manufacturing processes. […] 2×10^8 transducing units of lentivirus encoding anti-BCMA CARs were added one day after culture initiation. […] At the end of culture, the anti-BCMA CAR T cells were interrogated for phenotype. Expression of CD62L on anti-BCMA CAR T cells was assessed by flow cytometry at the end of culture. Anti-BCMA CAR T cells were specifically identified using recombinant human BCMA-IgG Fc conjugated to PE. CD62L expression was determined with a co-stain using an antibody specific to CD62L. […] (FIG. 3).

For assay [1], the system named is multiple myeloma tumors (RPMI-8226). Nature of the assay: Anti-tumor activity of cultured anti-BCMA CAR T cells in sub cutaneous multiple myeloma tumor model. In kind it is in vivo, mice. Conditions: 100 mm^3 sub cutaneous RPMI-8226 tumors; 1×10^6 CAR-positive cells infused. On the procedure: Anti-BCMA CAR T cells treated with MK-2206, TCN, or ZSTK474 as described in Example 3 were tested to evaluate whether increased CD62L expression was associated with increased anti-tumor activity. […] Animals with 100 mm^3 sub cutaneous multiple myeloma tumors (RPMI-8226) were infused with equivalent CAR T cell doses (1×10^6 CAR-positive cells).

Another assay has as its system Daudi tumor. Nature of the assay: Anti-tumor activity of cultured anti-BCMA CAR T cells in aggressive Daudi tumor model. In kind it is in vivo. An excerpt: Daudi tumor cells express a low level of BCMA protein and can be effectively treated using anti-BCMA CAR T cells.
A further assay has as its system RPMI-8226. The assay is described as follows: Persistence of anti-BCMA CAR T cells: RPMI-8226 tumor rechallenge. The format is in vivo, mice. The note with it: rechallenged 13 days later with RPMI-8226 on the opposite flank after complete regression.
Assay [2] deals with T cells. The assay is described as follows: T cell proliferation (CellTrace Violet dilution, flow cytometry) of PBMC-derived T cells cultured with AKT inhibitor. The format is cell-based. On the procedure:
The purpose of this experiment was to determine the effect of Akt inhibitors on T cell proliferation. The impact of MK-2206 (Selleckchem) on T cell proliferation was assessed by measuring T cell division. Peripheral blood mononuclear cells (PBMC) are a heterogeneous cellular population containing T cells. PBMC were harvested from normal donors and labeled with a fluorescent dye (CellTrace® Violet, Molecular Probes), whose intensity is progressively diluted by a factor of two with each cell division. The labeled PBMCs were used as a source of cells for T cell expansion. […] The impact of MK-2206 on cell division was assayed by evaluating CellTrace Violet dilution with flow cytometry after the addition of 0.025 μM, 0.074 μM, 0.222 μM, 0.67 μM, or 2.0 μM, MK-2206 to the T cultures at day 0. […] A pairwise t test was performed on all day seven cultures; (each concentration of MK-2206 was compared to 0 μM MK-2206: the cultures were not statistically different at the p≤0.05 level).
On the technique in general: A flow cytometer gives signals particle by particle.

Assay [3] concerns T cells. The assay is described as follows: CD62L expression on T cells treated with MK-2206. The format is cell-based. The method, then: The purpose of this experiment was to determine the effect of Akt inhibitors on T cell markers for T cell potency. The impact of MK-2206 (Selleckchem) on T cell potency was assessed by measuring CD62L expression in the T cell cultures manufactured in Example 1. Mouse models have shown that CD62L expression identifies potent T cells; T cells with greater anti-tumor efficacy after adoptive transfer. […] FIG. 2. A pairwise T test was performed on all day seven cultures (each concentration of MK-2206 was compared to 0 μM MK-2206: *p<0.05, **p<0.01).

“Also recorded” adds a separate entry of the source.

As for `CN1N=C(N)c2cn([C@@H]3O[C@H](COP(=O)(O)O)[C@@H](O)[C@H]3O)c3ncnc1c23` [TCN, triciribine phosphate], the “CD62L expression on anti-BCMA CAR T cells compared to cultures with IL-2 alone” value in the assay on anti-BCMA CAR T cells is recorded as “not”. In addition, in assay [1], the “anti-tumor activity of anti-BCMA CAR T cells cultured with the agent” value is given as “did not show an anti-tumor response; also recorded: completely abolished any anti-tumor responses”.
As to `FC(F)c1nc2ccccc2n1-c1nc(N2CCOCC2)nc(N2CCOCC2)n1` [ZSTK474], in the assay with anti-BCMA CAR T cells, the “CD62L expression on anti-BCMA CAR T cells compared to cultures with IL-2 alone” value is given as “significantly higher CD62L expression”. In addition, the “anti-tumor activity (Daudi tumor progression) of anti-BCMA CAR T cells cultured with the agent” value with Daudi tumor is on record as “complete tumor regression”. Moreover, in the assay on RPMI-8226, the “tumor outgrowth / engraftment after rechallenge in animals treated with anti-BCMA CAR T cells cultured with the agent” value is reported as “none of the animals treated with ZSTK474-cultured anti-BCMA CAR T cells had any evidence of tumor engraftment”.
Turning to `NC1(c2ccc(-c3nc4ccn5c(=O)[nH]nc5c4cc3-c3ccccc3)cc2)CCC1` [MK-2206], in the assay on anti-BCMA CAR T cells, the “CD62L expression on anti-BCMA CAR T cells compared to cultures with IL-2 alone” value is reported as “significantly higher CD62L expression”. The “anti-tumor activity (Daudi tumor progression) of anti-BCMA CAR T cells cultured with the agent” value in the assay on Daudi tumor is listed as “complete tumor regression”. Further, the “T cell division / proliferation compared to vehicle or non-treated controls” value with T cells [2] (seven days of culture, 0.025-2.0 μM MK-2206 with IL-2, pairwise t test p≤0.05) is recorded as “no statistically significant differences in T cell division; also recorded: not substantially different”. The “T cell division / proliferation compared to no treatment control” value in the assay on T cells [2] (three days of culture, 0.025-2.0 μM MK-2206 with IL-2, CD3 and CD28 antibodies) is “did not substantially decrease T cell division; also recorded: only slightly decreased”. For the same compound, the “CD62L expression on T cells compared to no treatment control” value in the assay with T cells [3] (seven days of culture in the presence of IL-2, all concentrations tested) is on record as “significantly increases CD62L expression at all concentrations; also recorded: significant higher levels of CD62L expression”; with T cells [3] (three days of culture with MK-2206), “not substantially different”.
